Among the data in ChEMBL document CHEMBL5696441 (Nat Chem Biol, 2011) are Activity values, retold here.

Assay [1] deals with Serine/threonine-protein kinase tousled-like 2 (Homo sapiens) (UniProt Q86UE8). Nature of the assay: Inhibition of TLK2 (unknown origin) assessed as remaining activity at 1 uM by Kinome scan method relative to control.
The target of assay [2] is 3-phosphoinositide-dependent protein kinase 1 (Homo sapiens) (UniProt O15530). Nature of the assay: Inhibition of PDPK1 (unknown origin) assessed as remaining activity at 1 uM by Kinome scan method relative to control.
3-phosphoinositide-dependent protein kinase 1 (Homo sapiens), sequence (O15530 whole entry): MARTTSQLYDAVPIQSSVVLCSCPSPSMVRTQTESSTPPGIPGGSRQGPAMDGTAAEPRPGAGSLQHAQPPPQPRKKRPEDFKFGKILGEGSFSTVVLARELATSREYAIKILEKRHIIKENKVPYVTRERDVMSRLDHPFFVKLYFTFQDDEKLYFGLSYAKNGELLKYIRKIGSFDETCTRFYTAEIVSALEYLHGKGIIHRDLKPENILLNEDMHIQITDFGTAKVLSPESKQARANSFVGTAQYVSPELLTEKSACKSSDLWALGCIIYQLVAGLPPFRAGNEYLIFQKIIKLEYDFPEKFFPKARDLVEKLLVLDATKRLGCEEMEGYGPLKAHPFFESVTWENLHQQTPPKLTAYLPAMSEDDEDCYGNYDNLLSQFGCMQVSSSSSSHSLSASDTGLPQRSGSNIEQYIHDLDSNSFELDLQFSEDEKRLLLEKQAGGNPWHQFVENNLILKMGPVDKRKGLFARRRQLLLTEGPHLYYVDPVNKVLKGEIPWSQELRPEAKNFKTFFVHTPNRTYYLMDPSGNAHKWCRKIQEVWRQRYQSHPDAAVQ
Assay [3] has as its target TRAF2 and NCK-interacting protein kinase (Homo sapiens) (UniProt Q9UKE5). Nature of the assay: Inhibition of TNIK (unknown origin) assessed as remaining activity at 1 uM by Kinome scan method relative to control.
The target in assay [4] is Fibroblast growth factor receptor 2 (Homo sapiens) (UniProt P21802). Nature of the assay: Inhibition of FGFR2 (unknown origin) assessed as remaining activity at 1 uM by Kinome scan method relative to control.
Fibroblast growth factor receptor 2 (Homo sapiens), sequence (P21802 22-821 limits assumed): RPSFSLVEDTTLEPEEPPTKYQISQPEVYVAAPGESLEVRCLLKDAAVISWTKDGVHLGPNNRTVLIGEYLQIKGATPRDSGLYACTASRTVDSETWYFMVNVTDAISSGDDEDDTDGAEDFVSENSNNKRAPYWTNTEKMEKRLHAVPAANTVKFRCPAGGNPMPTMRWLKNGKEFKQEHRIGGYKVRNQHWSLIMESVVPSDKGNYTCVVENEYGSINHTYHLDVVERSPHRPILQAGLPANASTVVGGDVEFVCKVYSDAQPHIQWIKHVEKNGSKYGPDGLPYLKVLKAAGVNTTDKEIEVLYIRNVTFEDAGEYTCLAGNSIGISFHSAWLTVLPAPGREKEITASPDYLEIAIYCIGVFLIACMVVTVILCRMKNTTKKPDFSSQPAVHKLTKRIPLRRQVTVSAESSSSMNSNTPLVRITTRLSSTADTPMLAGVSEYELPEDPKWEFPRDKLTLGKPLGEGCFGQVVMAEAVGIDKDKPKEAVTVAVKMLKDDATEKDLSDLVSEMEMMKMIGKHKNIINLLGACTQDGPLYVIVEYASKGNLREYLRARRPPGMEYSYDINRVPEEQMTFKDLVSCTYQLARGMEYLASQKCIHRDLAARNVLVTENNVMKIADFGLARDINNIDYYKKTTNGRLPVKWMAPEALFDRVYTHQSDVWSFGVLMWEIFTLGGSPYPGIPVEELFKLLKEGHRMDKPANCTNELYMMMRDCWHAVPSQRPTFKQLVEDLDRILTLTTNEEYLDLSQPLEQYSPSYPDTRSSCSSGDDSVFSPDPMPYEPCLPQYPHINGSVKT
The target of assay [5] is Membrane-associated tyrosine- and threonine-specific cdc2-inhibitory kinase (Homo sapiens) (UniProt Q99640). Nature of the assay: Inhibition of PKMYT1 (unknown origin) assessed as remaining activity at 1 uM by Kinome scan method relative to control.
Membrane-associated tyrosine- and threonine-specific cdc2-inhibitory kinase (Homo sapiens), sequence (Q99640 whole entry): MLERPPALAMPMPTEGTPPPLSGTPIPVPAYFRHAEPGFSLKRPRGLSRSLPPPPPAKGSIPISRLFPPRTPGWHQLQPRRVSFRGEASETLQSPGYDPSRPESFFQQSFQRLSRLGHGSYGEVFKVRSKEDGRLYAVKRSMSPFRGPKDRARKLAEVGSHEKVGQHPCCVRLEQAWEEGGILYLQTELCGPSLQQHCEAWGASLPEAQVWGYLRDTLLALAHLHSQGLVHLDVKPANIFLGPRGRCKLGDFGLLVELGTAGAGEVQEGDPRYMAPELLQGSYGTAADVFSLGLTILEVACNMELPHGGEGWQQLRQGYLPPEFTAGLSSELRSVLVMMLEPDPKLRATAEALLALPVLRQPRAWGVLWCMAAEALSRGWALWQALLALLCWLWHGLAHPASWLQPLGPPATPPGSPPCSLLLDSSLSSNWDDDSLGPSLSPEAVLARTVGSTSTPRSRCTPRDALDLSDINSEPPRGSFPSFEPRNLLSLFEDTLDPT
Assay [6] deals with Casein kinase II subunit alpha (Homo sapiens) (UniProt P68400). As to the kind of experiment: Inhibition of CSNK2A1 (unknown origin) assessed as remaining activity at 1 uM by Kinome scan method relative to control.
Casein kinase II subunit alpha (Homo sapiens), sequence (P68400 whole entry, looked up): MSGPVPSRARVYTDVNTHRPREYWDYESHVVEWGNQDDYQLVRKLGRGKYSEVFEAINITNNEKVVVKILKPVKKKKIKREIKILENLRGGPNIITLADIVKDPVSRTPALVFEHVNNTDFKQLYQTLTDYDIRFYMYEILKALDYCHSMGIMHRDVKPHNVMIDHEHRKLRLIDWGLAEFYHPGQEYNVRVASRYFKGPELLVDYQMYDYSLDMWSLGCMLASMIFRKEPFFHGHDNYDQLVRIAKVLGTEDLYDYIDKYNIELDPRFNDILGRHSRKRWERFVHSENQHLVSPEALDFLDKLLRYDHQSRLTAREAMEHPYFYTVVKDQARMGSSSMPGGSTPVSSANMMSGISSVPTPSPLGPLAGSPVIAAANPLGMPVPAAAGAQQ
In assay [7] the target is Maternal embryonic leucine zipper kinase (Homo sapiens) (UniProt Q14680). Nature of the assay: Inhibition of MELK (unknown origin) assessed as remaining activity at 1 uM by Kinome scan method relative to control.
Maternal embryonic leucine zipper kinase (Homo sapiens), sequence (Q14680 whole entry, looked up): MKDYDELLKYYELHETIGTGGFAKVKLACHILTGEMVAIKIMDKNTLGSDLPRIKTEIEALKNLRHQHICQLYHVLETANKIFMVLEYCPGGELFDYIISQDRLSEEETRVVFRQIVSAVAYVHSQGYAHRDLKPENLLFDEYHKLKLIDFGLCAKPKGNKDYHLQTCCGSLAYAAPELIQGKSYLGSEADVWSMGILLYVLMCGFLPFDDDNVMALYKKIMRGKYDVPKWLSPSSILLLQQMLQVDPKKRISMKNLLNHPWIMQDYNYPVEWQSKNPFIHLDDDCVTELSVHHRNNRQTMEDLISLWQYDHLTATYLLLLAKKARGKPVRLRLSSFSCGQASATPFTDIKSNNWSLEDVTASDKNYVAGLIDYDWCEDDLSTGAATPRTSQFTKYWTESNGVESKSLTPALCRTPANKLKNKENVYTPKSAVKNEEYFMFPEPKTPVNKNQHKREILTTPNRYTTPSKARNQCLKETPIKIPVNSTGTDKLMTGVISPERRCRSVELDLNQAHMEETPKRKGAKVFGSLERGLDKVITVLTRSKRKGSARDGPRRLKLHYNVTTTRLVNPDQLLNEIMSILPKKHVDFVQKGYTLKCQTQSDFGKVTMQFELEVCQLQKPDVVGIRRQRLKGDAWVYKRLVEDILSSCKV
The target in assay [8] is Receptor-interacting serine/threonine-protein kinase 4 (Homo sapiens) (UniProt P57078). As to the kind of experiment: Inhibition of RIPK4 (unknown origin) assessed as remaining activity at 1 uM by Kinome scan method relative to control.
Receptor-interacting serine/threonine-protein kinase 4 (Homo sapiens), sequence (P57078 whole entry, canonical isoform): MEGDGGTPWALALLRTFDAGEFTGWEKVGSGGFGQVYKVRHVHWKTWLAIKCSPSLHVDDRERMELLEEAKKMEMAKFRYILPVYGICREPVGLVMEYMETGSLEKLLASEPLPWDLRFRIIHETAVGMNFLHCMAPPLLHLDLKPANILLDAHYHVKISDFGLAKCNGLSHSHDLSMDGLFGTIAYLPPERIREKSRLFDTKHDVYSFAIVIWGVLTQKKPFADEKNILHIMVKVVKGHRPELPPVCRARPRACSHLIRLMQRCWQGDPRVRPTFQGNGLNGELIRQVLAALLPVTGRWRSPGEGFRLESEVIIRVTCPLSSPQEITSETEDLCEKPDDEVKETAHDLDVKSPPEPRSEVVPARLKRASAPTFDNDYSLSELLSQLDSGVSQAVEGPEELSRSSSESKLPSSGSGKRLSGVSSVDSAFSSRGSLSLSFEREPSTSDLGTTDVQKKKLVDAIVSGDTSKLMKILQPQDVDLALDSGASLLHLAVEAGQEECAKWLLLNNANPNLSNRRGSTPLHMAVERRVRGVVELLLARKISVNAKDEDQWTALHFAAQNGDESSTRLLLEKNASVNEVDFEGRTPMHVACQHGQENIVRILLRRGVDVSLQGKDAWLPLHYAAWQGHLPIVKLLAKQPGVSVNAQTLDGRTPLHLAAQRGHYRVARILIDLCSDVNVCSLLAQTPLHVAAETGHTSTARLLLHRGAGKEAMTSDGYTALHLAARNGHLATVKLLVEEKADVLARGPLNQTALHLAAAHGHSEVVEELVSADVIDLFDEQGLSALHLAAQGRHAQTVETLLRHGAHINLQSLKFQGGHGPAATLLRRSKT
Assay [9] concerns the target Phosphatidylinositol 4,5-bisphosphate 3-kinase catalytic subunit gamma isoform (Homo sapiens) (UniProt P48736). Nature of the assay: Inhibition of PIK3CG (unknown origin) assessed as remaining activity at 1 uM by Kinome scan method relative to control.
In assay [10] the target is T1, Muscle, skeletal receptor tyrosine-protein kinase (Homo sapiens) (UniProt O15146).
T1 sequence (whole entry): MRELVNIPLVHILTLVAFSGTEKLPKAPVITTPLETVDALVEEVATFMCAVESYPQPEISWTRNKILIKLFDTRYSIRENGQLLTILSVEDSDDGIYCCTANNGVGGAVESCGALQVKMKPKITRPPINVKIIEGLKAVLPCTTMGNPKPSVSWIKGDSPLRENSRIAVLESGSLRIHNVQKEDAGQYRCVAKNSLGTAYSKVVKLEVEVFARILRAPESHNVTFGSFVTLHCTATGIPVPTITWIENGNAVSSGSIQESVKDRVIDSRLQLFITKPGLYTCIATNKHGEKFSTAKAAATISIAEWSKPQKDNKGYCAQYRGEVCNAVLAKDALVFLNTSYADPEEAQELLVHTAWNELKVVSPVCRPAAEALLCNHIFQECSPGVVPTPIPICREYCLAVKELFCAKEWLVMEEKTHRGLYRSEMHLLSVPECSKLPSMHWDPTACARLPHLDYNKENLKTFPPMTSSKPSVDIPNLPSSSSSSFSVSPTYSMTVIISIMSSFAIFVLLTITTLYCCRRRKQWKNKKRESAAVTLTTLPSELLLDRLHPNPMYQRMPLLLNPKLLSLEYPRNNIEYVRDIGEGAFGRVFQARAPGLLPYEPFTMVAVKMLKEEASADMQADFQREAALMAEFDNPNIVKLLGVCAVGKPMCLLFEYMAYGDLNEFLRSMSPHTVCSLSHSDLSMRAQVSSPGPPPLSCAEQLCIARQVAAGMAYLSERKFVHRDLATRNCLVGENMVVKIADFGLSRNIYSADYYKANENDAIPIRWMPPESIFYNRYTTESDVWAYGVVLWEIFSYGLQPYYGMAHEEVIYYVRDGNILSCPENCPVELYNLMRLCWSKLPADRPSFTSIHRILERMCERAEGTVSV
Nature of the assay: Inhibition of MUSK (unknown origin) assessed as remaining activity at 1 uM by Kinome scan method relative to control.

For assay [11], the system named is Tyrosine-protein kinase ABL1 (Homo sapiens), P00519 [T315I]. Nature of the assay: Inhibition of ABL1 T315I mutant (unknown origin) assessed as remaining activity at 1 uM by Kinome scan method relative to control.
Assay [12] addresses MAP/microtubule affinity-regulating kinase 3 (Homo sapiens) (UniProt P27448). Nature of the assay: Inhibition of MARK3 (unknown origin) assessed as remaining activity at 1 uM by Kinome scan method relative to control.
In assay [13] the target is Dual specificity mitogen-activated protein kinase kinase 3 (Homo sapiens) (UniProt P46734). As to the kind of experiment: Inhibition of MEK3 (unknown origin) assessed as remaining activity at 1 uM by Kinome scan method relative to control.
Assay [14] has as its target Serine/threonine-protein kinase LATS2 (Homo sapiens) (UniProt Q9NRM7). As to the kind of experiment: Inhibition of LATS2 (unknown origin) assessed as remaining activity at 1 uM by Kinome scan method relative to control.
In assay [15] the target is Vascular endothelial growth factor receptor 1 (Homo sapiens) (UniProt P17948). As to the kind of experiment: Inhibition of FLT1 (unknown origin) assessed as remaining activity at 1 uM by Kinome scan method relative to control.
Assay [16] concerns the target Death-associated protein kinase 2 (Homo sapiens) (UniProt Q9UIK4). Nature of the assay: Inhibition of DAPK2 (unknown origin) assessed as remaining activity at 1 uM by Kinome scan method relative to control.
Assay [17] addresses Serine/threonine-protein kinase MRCK alpha (Homo sapiens) (UniProt Q5VT25). Nature of the assay: Inhibition of human CDC42BPA assessed as residual activity at 1 uM using RB-S6P as substrate in presence of 33P-ATP by ProQinase assay relative to control.
Assay [18] deals with Leukocyte tyrosine kinase receptor (Homo sapiens) (UniProt P29376). As to the kind of experiment: Inhibition of LTK (unknown origin) assessed as remaining activity at 1 uM by Kinome scan method relative to control.
Assay [19] deals with RAC-beta serine/threonine-protein kinase (Homo sapiens) (UniProt P31751). As to the kind of experiment: Inhibition of AKT2 (unknown origin) assessed as remaining activity at 1 uM by Kinome scan method relative to control.

Serine/threonine-protein kinase LATS2 (Homo sapiens), sequence (Q9NRM7 whole entry): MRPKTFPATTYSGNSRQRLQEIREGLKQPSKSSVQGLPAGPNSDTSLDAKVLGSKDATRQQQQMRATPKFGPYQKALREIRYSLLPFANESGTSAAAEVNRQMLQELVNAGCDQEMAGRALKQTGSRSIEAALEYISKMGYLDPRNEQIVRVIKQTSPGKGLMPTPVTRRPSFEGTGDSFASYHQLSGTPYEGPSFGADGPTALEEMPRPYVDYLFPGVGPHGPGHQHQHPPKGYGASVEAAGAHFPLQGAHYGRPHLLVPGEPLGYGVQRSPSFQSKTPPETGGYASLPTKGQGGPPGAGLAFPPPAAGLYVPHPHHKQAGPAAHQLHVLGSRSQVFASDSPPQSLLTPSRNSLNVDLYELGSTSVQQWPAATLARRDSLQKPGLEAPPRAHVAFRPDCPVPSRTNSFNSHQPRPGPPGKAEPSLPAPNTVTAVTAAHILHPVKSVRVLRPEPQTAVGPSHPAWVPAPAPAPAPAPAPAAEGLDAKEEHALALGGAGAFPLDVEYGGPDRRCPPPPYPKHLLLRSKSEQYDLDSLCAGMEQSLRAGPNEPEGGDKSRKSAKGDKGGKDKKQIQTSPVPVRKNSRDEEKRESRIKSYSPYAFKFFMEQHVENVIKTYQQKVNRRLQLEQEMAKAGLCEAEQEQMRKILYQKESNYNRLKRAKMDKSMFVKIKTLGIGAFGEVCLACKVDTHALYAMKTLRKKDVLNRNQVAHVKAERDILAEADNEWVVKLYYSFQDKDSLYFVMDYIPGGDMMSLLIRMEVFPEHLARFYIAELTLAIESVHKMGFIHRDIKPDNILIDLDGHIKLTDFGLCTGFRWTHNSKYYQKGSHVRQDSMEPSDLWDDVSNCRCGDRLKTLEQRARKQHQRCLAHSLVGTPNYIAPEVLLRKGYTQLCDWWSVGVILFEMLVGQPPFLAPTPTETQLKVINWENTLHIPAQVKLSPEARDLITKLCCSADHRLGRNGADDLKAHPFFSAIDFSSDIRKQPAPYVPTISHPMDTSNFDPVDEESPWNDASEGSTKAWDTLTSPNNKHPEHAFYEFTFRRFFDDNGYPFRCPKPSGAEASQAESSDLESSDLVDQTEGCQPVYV

Consider `Nc1ccccc1Nc1ccc2c(c1)CCc1ccccc1C2=O`, for which the Activity in assay [1] worked out at 85%; in [2], 90%; in assay [3] it was 90%; in assay [4], 91%; in assay [5] it was 64%; in assay [6], 86%. The Activity in assay [7] is 86%; in assay [8], 80%; in [9], 86%; in assay [10] it was 86%; in [11] it was 83%; in assay [12] it was 82%. Also, the Activity in assay [13] is 97%; in [14] it was 77%; in assay [15], 85%; in assay [16], 99%.

Take `O=C1c2ccc(Nc3ccc(F)cc3F)cc2CCc2ccc(OC[C@H](O)CO)cc21` [Skepinone-L]: the Activity in assay [1] worked out at 82%; in assay [2] it was 100%; in assay [3], 93%; in assay [4] it was 98%; in [17] it was 98%; in [5], 85%. Besides, the Activity in [6] is 96%; in [7] it was 94%; in [8] it was 90%; in assay [9], 100%; in [10] it was 90%; in assay [11] it was 94%. The Activity in [12] is 90%; in assay [18], 100%; in assay [13], 95%; in [14], 94%; in assay [15], 82%; in [19], 90%. Further, in assay [16], the Activity amounted to 93%.
